Results on seven molecules are retold here after patent US20240262826A1, “WILD TYPE KIT INHIBITORS” (Blueprint Medicines Corporation, priority 2022, published 2024).

In series [1] the target is human P-glycoprotein (P-gp, MDR1) (Homo sapiens (Human), UniProt P08183). The series can be described thus: MDCK-MDR1 cell monolayer drug transport assay (P-gp efflux ratio). The format is in vitro ADME. Particulars: pH 7.4, MDCK-MDR1 cells, 1 uM concentration of compound, read-out: Pgp Efflux Ratio, 1 uM. The protocol:
The potential for compounds prepared according to the examples to be substrates of P-gp was evaluated using in vitro on Multidrug Resistance Mutation 1-Mardin-Darby Canine Kidney (MDCK-MDR1)) (Mardin-Darby Canine Kidney) cell monolayers overexpressing P-gp grown on permeable supports.
Preparation for cell seeding: MDCK-MDR1 cell culture medium consisting of Dulbecco's Modified Eagle's Medium (DMEM) with high glucose and L-glutamine supplemented with: 10% FBS, 0.1 mg/mL of streptomycin, 0.6 μg/mL of Kanamycin sulfate and 100 units of penicillin was prepared. 50 μL of culture medium was added to each well of the Transwell insert. The Transwell insert was removed from the reservoir and 25 mL of culture medium was added. After incubation at 37° C., 5% CO2 for 1 hour, the plates were ready for cell seeding. The cells were cultivated in T-75 flasks in a cell culture incubator set at 37° C., 5% CO2, 95% relative humidity until they reached 80-90% confluence before detaching and splitting. The cultivated cells were rinsed in T-75 flasks with 5 mL PBS and aspirated off, and then 1.5 mL trypsin/EDTA was added and incubated at 37° C. for approximately 5 to 10 minutes or until the cells detach and float. The trypsin/EDTA was inactived by adding excess serum containing medium. The cell suspension was transferred to a conical tube and the cells pelleted by centrifugation at 120×g for 10 minutes. The cells were resuspended in seeding medium at a density of 1.56×10^6 cells/mL. This cell concentration was used to seed 5.45×10^5 cells/cm^2.
Seeding and feeding of MDCK-MDR1 cells into transwell plates: 50 μL of the above cell suspension was added to each well of a previously prepared Transwell plate and the plate was incubated for 4-8 days, replacing the medium every other day beginning no sooner than 48 hours after initial plating. The medium must be replaced on the day before conducting the experiment, and the procedure for medium changes was carried out as follows. The plate was removed from the incubator and placed in a hood. The medium was aspirated from a reservoir and each Transwell was inserted. 100 μL of culture medium was added to each well of the Transwell inserts and 25 mL of culture medium to reservoir tray. The plate was returned to the incubator.
Assessment of cell monolayer integrity: When the 4-day cultured MDCK-MDR1 cells reached confluence and were differentiated, the medium was removed from the reservoir and Transwell inserts. 100 μL of prewarmed culture medium was added to each transwell insert and 25 mL was added to the reservoir tray. The electrical resistance across the monolayer was measured using a Millicell Epithelial Volt-Ohm measuring system. The electrical resistance for each well was measured and then the plate was returned to the incubator. TEER values were calculated using this formula: TEER measurement (ohms)×Area of membrane (cm2)=TEER value (ohm cm2). Any monolayer with a TEER value <42 ohms·cm2, indicating poor monolayer formation, was discarded.
Performing the drug transport assay: The MDCK-MDR1 plate was removed from the incubator and the monolayer was washed, exchanging the volume two times using pre-warmed HBSS (Hank's balanced salt solution) (10 mM HEPES, pH 7.4). The plate was then incubated at 37° C. for 30 minutes. A 1 μM compound working solution was prepared as follows: Added […] of stock solution (10 mM in DMSO) of test compound and control compounds (Metoprolol, Prazosin and Imatinib) in one 96 well plate, then added 98 μL of DMSO into the same well to obtain 0.2 mM stock solutions (note a stock solution was further diluted 1:10 for eventually making a 0.1 uM compound working solution). Transfered 3 μL of 0.2 mM solution into 597 μL of transport buffer in one 96 well plate to prepare the 1 μM compound working solution. The plate was shaken at 1000 rpm for 10 min.

In a further series the target is wild type c-kit (Homo sapiens (Human), UniProt P10721). In words: PathScan phospho c-kit (Tyr719) sandwich ELISA in SCF-stimulated M-07e cells (pKIT assay). The format is cell-based. Particulars: ELISA assay (values not marked *). In a few lines: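 Tyr719-phosphorylated c-kit was measured by colorimetric (TMB) sandwich ELISA in lysates of M-07e cells. Cells were starved 4 h without serum or GM-CSF, dosed 60 min at 37 °C with compound (8 points, duplicate, 0.25% DMSO), and stimulated 10 min with human SCF (500 ng/mL as added). IC50 values came from 4-parameter logistic regression.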
Chain of wild type c-kit (P10721 26-976): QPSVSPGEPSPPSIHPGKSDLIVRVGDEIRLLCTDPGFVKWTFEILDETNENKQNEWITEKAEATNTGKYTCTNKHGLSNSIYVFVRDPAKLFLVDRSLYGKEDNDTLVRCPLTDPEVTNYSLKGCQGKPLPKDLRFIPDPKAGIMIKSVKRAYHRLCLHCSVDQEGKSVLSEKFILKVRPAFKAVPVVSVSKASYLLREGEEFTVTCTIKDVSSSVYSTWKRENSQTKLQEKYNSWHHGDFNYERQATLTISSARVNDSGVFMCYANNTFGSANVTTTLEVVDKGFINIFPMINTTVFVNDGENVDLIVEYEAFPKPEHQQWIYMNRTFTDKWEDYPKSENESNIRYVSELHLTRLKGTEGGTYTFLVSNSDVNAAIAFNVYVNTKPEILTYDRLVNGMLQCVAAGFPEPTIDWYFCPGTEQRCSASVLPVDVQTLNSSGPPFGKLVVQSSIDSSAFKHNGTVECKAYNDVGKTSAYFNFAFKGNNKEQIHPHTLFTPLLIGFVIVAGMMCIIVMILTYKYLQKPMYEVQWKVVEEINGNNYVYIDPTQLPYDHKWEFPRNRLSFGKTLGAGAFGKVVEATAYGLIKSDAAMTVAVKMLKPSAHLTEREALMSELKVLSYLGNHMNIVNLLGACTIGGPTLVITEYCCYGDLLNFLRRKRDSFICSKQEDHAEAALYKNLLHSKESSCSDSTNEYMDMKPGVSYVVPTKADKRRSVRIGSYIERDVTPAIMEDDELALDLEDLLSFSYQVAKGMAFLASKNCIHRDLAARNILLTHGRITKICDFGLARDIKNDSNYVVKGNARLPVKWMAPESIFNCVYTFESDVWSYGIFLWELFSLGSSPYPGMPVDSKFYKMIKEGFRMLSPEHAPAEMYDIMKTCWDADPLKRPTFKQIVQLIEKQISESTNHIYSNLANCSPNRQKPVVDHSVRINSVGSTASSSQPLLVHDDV
In general terms: In an ELISA, binding on a coated surface is turned into a signal by an enzyme label.

SMILES strings stand for the structures.

Chain of human P-glycoprotein (P-gp, MDR1) (P08183 whole entry): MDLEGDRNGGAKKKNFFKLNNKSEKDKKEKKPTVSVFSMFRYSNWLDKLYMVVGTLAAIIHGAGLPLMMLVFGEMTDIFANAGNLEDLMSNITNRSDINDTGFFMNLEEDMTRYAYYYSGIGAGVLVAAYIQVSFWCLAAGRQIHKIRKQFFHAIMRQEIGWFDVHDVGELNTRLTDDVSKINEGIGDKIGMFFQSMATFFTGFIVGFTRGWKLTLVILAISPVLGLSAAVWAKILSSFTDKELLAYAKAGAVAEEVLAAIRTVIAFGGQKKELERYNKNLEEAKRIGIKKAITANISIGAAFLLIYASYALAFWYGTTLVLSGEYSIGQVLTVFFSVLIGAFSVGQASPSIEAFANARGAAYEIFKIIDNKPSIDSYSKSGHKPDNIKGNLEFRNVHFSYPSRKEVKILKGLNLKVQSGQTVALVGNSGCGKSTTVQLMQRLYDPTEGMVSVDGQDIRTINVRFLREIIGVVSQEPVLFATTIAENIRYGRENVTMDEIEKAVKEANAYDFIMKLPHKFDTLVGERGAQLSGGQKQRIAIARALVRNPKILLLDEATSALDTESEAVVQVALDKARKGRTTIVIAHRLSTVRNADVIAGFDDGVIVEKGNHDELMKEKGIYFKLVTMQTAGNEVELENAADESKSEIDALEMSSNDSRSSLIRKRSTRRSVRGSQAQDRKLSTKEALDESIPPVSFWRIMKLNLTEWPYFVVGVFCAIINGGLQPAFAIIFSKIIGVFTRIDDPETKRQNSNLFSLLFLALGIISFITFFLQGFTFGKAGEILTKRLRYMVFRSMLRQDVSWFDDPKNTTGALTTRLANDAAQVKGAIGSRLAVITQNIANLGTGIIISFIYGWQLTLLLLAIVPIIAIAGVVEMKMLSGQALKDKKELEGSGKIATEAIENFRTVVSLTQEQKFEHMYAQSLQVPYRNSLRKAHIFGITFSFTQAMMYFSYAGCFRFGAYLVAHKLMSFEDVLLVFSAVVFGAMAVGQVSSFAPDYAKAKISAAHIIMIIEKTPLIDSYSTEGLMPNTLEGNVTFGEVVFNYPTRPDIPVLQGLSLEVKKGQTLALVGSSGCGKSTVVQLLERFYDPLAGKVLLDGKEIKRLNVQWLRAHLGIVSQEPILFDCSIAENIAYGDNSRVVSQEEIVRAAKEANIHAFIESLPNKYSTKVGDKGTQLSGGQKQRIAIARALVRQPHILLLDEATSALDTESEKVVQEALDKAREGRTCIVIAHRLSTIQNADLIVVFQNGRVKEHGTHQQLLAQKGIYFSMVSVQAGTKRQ

As usually defined, the IC50 is the concentration that inhibits the measured activity by half. Lower therefore signals greater potency. Consider `COC[C@@H](O)Cn1nc(C)c(-c2ccn3ncc(C(=O)Nc4cc(-c5nnn(C)n5)ccc4C)c3c2)c1C` [Example 245, (S)-5-(1-(2-hydroxy-3-methoxypropyl)-3,5-dimethyl-1H-pyrazol-4-yl)-N-(2-methyl-5-(2-methyl-2H-tetrazol-5-yl)phenyl)pyrazolo[1,5-a]pyridine-3-carboxamide], for which the efflux ratio at 2 h, 1 µM in series [1] is 2.3. For the same molecule, the half-inhibitory concentration (IC50) against wild type c-kit was 0.8 nM.

Consider `Cc1ccc(-c2nnn(C3CC3)n2)cc1NC(=O)c1cnn2ccc(-c3cnn(CCCN4CCOCC4)c3)cc12` [Example 220, N-(5-(2-cyclopropyl-2H-tetrazol-5-yl)-2-methylphenyl)-5-(1-(3-morpholinopropyl)-1H-pyrazol-4-yl)pyrazolo[1,5-a]pyridine-3-carboxamide], for which the efflux ratio at 2 h, 1 µM in series [1] came out at 12.4. In addition, it took 1.8 nM to reach half-maximal inhibition at wild type c-kit (IC50).

For `O=C(Nc1cc(-n2nnc([C@H]3C[C@@H]3F)n2)ccc1Cl)c1cnn2ccc(-c3cnn(CC4(O)CCOCC4)c3)cc12` (single isomer, unassigned) [Example 271, N-(2-chloro-5-(5-((1R,2S)-2-fluorocyclopropyl)-2H-tetrazol-2-yl)phenyl)-5-(1-((4-hydroxytetrahydro-2H-pyran-4-yl)methyl)-1H-pyrazol-4-yl)pyrazolo[1,5-a]pyridine-3-carboxamide or N-(2-chloro-5-(5-((1S,2R)-2-fluorocyclopropyl)-2H-tetrazol-2-yl)phenyl)-5-(1-((4-hydroxytetrahydro-2H-pyran-4-yl)methyl)-1H-pyrazol-4-yl)pyrazolo[1,5-a]pyridine-3-carboxamide], the efflux ratio at 2 h, 1 µM in series [1] came to 2.2. The midpoint of inhibition on wild type c-kit, the IC50, lay at 0.3 nM.

Turning to `C[C@](O)(CO)Cn1cc(-c2ccn3ncc(C(=O)Nc4cc(-c5nnn(C6CC6)n5)ccc4Cl)c3c2)cn1` [Example 266, (R)-N-(2-chloro-5-(2-cyclopropyl-2H-tetrazol-5-yl)phenyl)-5-(1-(2,3-dihydroxy-2-methylpropyl)-1H-pyrazol-4-yl)pyrazolo[1,5-a]pyridine-3-carboxamide], the efflux ratio at 2 h, 1 µM in series [1] came to 3.4. Moreover, on wild type c-kit, the half-maximal inhibitory concentration (IC50) came to 0.3 nM.

With `Cc1ccc(-c2nnn([C@H]3C[C@@H](C(F)(F)F)C3)n2)cc1NC(=O)c1cnn2ccc(N3CCC(C)(O)CC3)cc12` [Example 122, 5-(4-hydroxy-4-methylpiperidin-1-yl)-N-(2-methyl-5-(2-((1s,3s)-3-(trifluoromethyl)cyclobutyl)-2H-tetrazol-5-yl)phenyl)pyrazolo[1,5-a]pyridine-3-carboxamide or 5-(4-hydroxy-4-methylpiperidin-1-yl)-N-(2-methyl-5-(2-((1r,3r)-3-(trifluoromethyl)cyclobutyl)-2H-tetrazol-5-yl)phenyl)pyrazolo[1,5-a]pyridine-3-carboxamide], in series [1], the efflux ratio at 2 h, 1 µM stood at 12.8. In addition, the IC50 against wild type c-kit was 0.6 nM.

As for `COC(=O)N1CC(c2cnn(-c3ccc(C)c(NC(=O)c4cnn5ccc(N(C)CCO)cc45)c3)n2)C1` [Example 84, methyl 3-(2-(3-(5-((2-hydroxyethyl)(methyl)amino)pyrazolo[1,5-a]pyridine-3-carboxamido)-4-methylphenyl)-2H-1,2,3-triazol-4-yl)azetidine-1-carboxylate], in series [1], the efflux ratio at 2 h, 1 µM amounted to 51.9. In addition, the IC50 on wild type c-kit was 21.9 nM.

Turning to `COC[C@](C)(O)Cn1cc(-c2ccn3ncc(C(=O)Nc4cc(-c5nnn(C6CC6)n5)ccc4C)c3c2)cn1` (single isomer, unassigned) [Example 267, (R)-N-(5-(2-cyclopropyl-2H-tetrazol-5-yl)-2-methylphenyl)-5-(1-(2-hydroxy-3-methoxy-2-methylpropyl)-1H-pyrazol-4-yl)pyrazolo[1,5-a]pyridine-3-carboxamide or (S)-N-(5-(2-cyclopropyl-2H-tetrazol-5-yl)-2-methylphenyl)-5-(1-(2-hydroxy-3-methoxy-2-methylpropyl)-1H-pyrazol-4-yl)pyrazolo[1,5-a]pyridine-3-carboxamide], the efflux ratio at 2 h, 1 µM in series [1] turned out to be 2.9. This molecule registered an IC50 against wild type c-kit of 1.4 nM.
